Test results: patent publication US5843941A, “Ras farnesyl transferase inhibitors” (Genentech, Inc., priority 1994, dated 1998)
Entries after “also recorded” stand apart in the source; their conditions may differ.

Columns and labels:
[1] = target: CAAX farnesyltransferase (Rattus norvegicus, UniProt Q02293+Q04631); assay: In vitro inhibition of CAAX farnesyltransferase; assay type: biochemical; set-up: purified to homogeneity from rat brain homogenates; from tissue; host or cells: rat brain; alternatively recombinant enzyme from a baculovirus expression system; conditions: FIG. 1A
Sequence of CAAX farnesyltransferase (Q02293 whole entry, one chain of several): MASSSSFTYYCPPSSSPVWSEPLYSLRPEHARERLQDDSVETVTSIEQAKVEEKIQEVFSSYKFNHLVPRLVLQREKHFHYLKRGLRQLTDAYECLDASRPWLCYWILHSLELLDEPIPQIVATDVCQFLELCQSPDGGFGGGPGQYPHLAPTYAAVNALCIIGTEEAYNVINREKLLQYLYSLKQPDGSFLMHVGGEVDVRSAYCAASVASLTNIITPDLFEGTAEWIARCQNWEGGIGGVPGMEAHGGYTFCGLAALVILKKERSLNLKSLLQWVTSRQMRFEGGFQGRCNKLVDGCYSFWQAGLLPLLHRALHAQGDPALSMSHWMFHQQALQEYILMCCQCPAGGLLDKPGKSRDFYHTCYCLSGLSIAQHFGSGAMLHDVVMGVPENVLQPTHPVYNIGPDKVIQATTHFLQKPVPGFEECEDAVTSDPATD
Procedure, shortened: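 Native or recombinant (baculovirus-infected cells, Q-Sepharose purified) farnesyltransferase incubated 30 min at 37 °C. [3H]farnesyl transfer to p21H-ras measured by SDS/trichloroacetic acid precipitation, nitrocellulose filtration and scintillation counting.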

[2] = test system: src-transformed rat-1 fibroblasts; assay: Changes in morphology of src-transformed cells; assay type: cell-based; conditions: FIG. 6C/6D
Experimental: Compound 27A (denoted as BG269A in the figure) and compound 27B (denoted as BG269B in the figure) were added at 250 μM to test whether these compounds would induce reversion to a more normal phenotype as had been previously shown with microinjection of anti-Ras antibodies (see Feramisco, J. R. et al Nature 314, 639 (1985)). The H-ras transformed cells, denoted as rat 2.2 cells, were generated by transfection of rat-1 fibroblasts as described (see Seeburg, P. H., Colby, W. W., Capon, D. J., Goeddel, D. V., and Levinson, A. D. Nature 312,71 (1984)). Cells that overgrew the monolayer were extracted and plated onto agar to obtain a cell line displaying a fully transformed phenotype. Untransformed rat-1 fibroblasts and src-transformed rat-1 fibroblasts were also treated. The src-transformed cells were generated by co-transfection of rat-1 fibroblasts with pSV3.Neo.src, a vector containing the gene for src as well as the gene that confers G418 resistance, both under control of SV40 early promoters. G418-resistant cell clones that diplayed a transformed phenotype were used to generate the cell line. On day 0, cells were plated in monolayer culture at 3×10^3 cells per well (24-well plates) in 1 ml DMEM supplemented with 10% FCS, 100 U/ml penicillin, 10 μg/ml streptomycin, 2% DMSO, and 0.5 mM DTT with and without 200 μM inhibitor. On day 3, the cells were refed with the same medium. […]

[3] = test system: MDA-7 cells; assay: Growth inhibition of human tumor line MDA-7; assay type: cell-based; conditions: MDA-7, breast, not ras transformed, read-out: % growth inhib.
Experimental: (§1) To examine the effects of farnesyltransferase inhibition on cell growth, three cell lines (ras-transformed rat-1, src-transformed rat-1, and parental rat-1 cells) were seeded (see FIG. 7) at low density and allowed to grow for 10 days in the absence or presence of increasing concentrations of BZA-5B (compound 37). See Example 128 for description of cells. On day 0, cells were plated in monolayer culture at 2×10^3 cells per well (24-well plates) in 1 ml DMEM supplemented with 10% fetal calf serum, 100 U/ml penicillin, 100 μg/ml streptomycin, 0.5 mM DTT, 0.025% DMSO, and the indicated concentration of BZA-5B (compound 37). On days 3 and 7, cells were washed and refed with the same medium. At the time indicated in FIG. 7, cells were harvested by trypsinization and counted in a Coulter counter. Panels A, C, E show the growth rate of each cell line in the absence of inhibitor. Panels B, D, F show the inhibition of growth as a function of concentration of BZA-5B at each time point. […]
(§2) To examine the effects of farnesyltransferase inhibition on the growth of human tumor cell lines, several such lines were treated with 25 μM BZA-5B (compound 37B) using a procedure similar to that described in Example 129 above. Cells were refed with fresh media at days 3 and 6 containing the inhibitor, and were harvested and counted as described above. […]

[4] = test system: MCF-231 cells; assay: Growth inhibition of human tumor line MCF-231; assay type: cell-based; conditions: MCF-231, breast (human), ras transformed, read-out: % growth inhib.
Experimental: as §1, §2

[5] = test system: Hela cells; assay: Growth inhibition of human tumor line Hela; assay type: cell-based; conditions: cervix, not ras transformed, read-out: % growth inhib.
Experimental: as §1, §2

[6] = test system: Ras proteins in Met18b-2 cells; assay: Incorporation of [3H]mevalonate into immunoprecipitated Ras proteins in Met18b-2 cells; assay type: cell-based, Chinese hamster
Experimental: In each experiment, aliquots of the Triton X-100 fraction (300 μg protein, prepared as described above) were incubated with 1 μg anti-Ras monoclonal antibody (Oncogene Sciences, Inc.) overnight at 4° C. on a rotating platform. Immune complexes were precipitated by addition of 25 μl Protein A-agarose suspension that had been pre-coated with goat anti-rat IgG (Oncogene Sciences, Inc.) according to the manufacturer's instructions. After a 30 min incubation at 4° C., the agarose beads were pelleted by centrifugation and washed 5 times with 1 ml each of wash solution (50 mM Tris-HCl, 50 mM NaCl, 0.5% (w/v) deoxycholate, 0.5% (v/v) Nonidet P-40, and 0.1% (w/v) SDS at pH 7.5). 75 μl of 1X SDS sample buffer was added and each sample heated for 5 min at 95° C. before electrophoresis as above.

[7] = test system: HT 1080 human tumor cells in nude mouse; assay: Survival of nude mice after intraperitoneal implantation of HT 1080 human tumor cells; assay type: in vivo; conditions: 20 mg/kg daily
Experimental: Implantation of […] HT 1080 cells in the peritoneal cavity of the nude mouse allows seeding and growth of tumor cell masses within the peritoneum. […] In this experiment, fourteen nude mice were injected on day 0 with […] HT 1080 cells via intraperitoneal injection. Half the animals (seven) immediately began receiving daily treatment with Compound 37B at 20 mg/kg (formulated in approx. 0.25 ml of 1% DMSO, 20% glycerol, 10 mM NaOAc, 130 mM NaCl, pH 4.5). The other seven animals received daily injection of the above vehicle alone.

Row | SMILES | IC50 ([1]; recombinant enzyme, read-out: concentration inhibiting recombinant ras CAAX farnesyltransferase by 50%) | fold lower inhibitory concentration than tetrapeptide CVFM ([1]; vs CVFM) | effect on morphology of src-transformed cells [2] | inhibition at 25 µM [3] | inhibition at 25 µM [4] | inhibition at 25 µM [5] | incorporation of [3H]mevalonate into immunoprecipitated ras proteins ([6]; 50 μM, FIG. 5, lanes 7-9) | minimal effective concentration ([6]; Cricetulus griseus, FIG. 5, read-out: concentration at which inhibition of incorporation into ras proteins was readily detectable) | mortality / survival of mice with IP tumor ([7]; over 25 days, FIG. 8) | tumor cell masses in the peritoneum at end of treatment ([7]; dissection of all treated animals)
1 | CSCC[C@H](NC(=O)CN1C(=O)C(N(C)C(=O)[C@@H](N)CS)N=C(c2ccccc2)c2ccccc21)C(=O)O (single isomer, unassigned) [27B] | 0.26 nM | ~200 fold | not affected | – | – | – | – | – | – | –
2 | COC(=O)[C@H](CCSC)NC(=O)CN1C(=O)C(N(C)C(=O)[C@@H](N)CS)N=C(c2ccccc2)c2ccccc21 (single isomer, unassigned) [37B] | – | – | – | 0% | 58% | 0% | abolished incorporation of [3H] mevalonate into immunoprecipitated ras proteins | 10 µM | caused a reduction in mortality over 25 days; also recorded: blocked the rapid mortality associated with IP implantation of tumor cells | all of the treated animals showed the presence of tumor cell masses in the peritoneum
